# Results as given in PubChem BioAssay (NCI).
#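 Abbreviation: GI50, concentration required for 50% inhibition of growth. TGI: total growth inhibition.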
# Legend:
# Assay in all cases: NCI tumour cell line growth inhibition, 384-well format
# [1] = tested on: EKVX NSCLC
# [2] = tested on: SN12C renal
# [3] = tested on: SW-620 colon
# [4] = tested on: SK-MEL-2 melanoma
# [5] = tested on: SF-268 CNS
# [6] = tested on: RXF 393 renal
# [7] = tested on: HOP-62 NSCLC
# [8] = tested on: CCRF-CEM leukemia
# [9] = tested on: OVCAR-4 ovarian
# [10] = tested on: U251 glioblastoma
# [11] = tested on: OVCAR-8 ovarian
# [12] = tested on: BT-549 breast
# [13] = tested on: HS 578T breast
# [14] = tested on: MDA-MB-468 breast
# [15] = tested on: UACC-257 melanoma
# [16] = tested on: UACC-62 melanoma
# [17] = tested on: COLO 205 colon
# [18] = tested on: A498 renal
# [19] = tested on: SR leukemia
# [20] = tested on: SF-539 CNS
# [21] = tested on: NCI-H322M lung
# [22] = tested on: SK-OV-3 ovarian
# [23] = tested on: SK-MEL-5 melanoma
# [24] = tested on: HCC-2998 colon
# [25] = tested on: OVCAR-5 ovarian
# [26] = tested on: TK-10 renal
# [27] = tested on: HL-60(TB) leukemia
# [28] = tested on: 786-0 renal
# [29] = tested on: CAKI-1 renal
# [30] = tested on: NCI-H460 NSCLC
# [31] = tested on: KM12 colon
# [32] = tested on: SNB-19 CNS
# [33] = tested on: ACHN renal
# [34] = tested on: MCF7 breast
# [35] = tested on: MALME-3M melanoma
# [36] = tested on: NCI-H23 lung
# [37] = tested on: NCI/ADR-RES ovarian
# [38] = tested on: NCI-H522 lung
# [39] = tested on: MDA-MB-231 breast
# [40] = tested on: HCT-15 colon
# [41] = tested on: IGROV1 ovarian
# [42] = tested on: HOP-92 NSCLC
# [43] = tested on: A549 NSCLC
# [44] = tested on: RPMI-8226 leukemia
# [45] = tested on: OVCAR-3 ovarian
# [46] = tested on: DU-145 prostate
# [47] = tested on: M14 melanoma
# [48] = tested on: MDA-MB-435 melanoma
# [49] = tested on: SK-MEL-28 melanoma
# [50] = tested on: SF-295 CNS
# [51] = tested on: T-47D breast
# [52] = tested on: MOLT-4 leukemia
# [53] = tested on: NCI-H226 lung
# [54] = tested on: PC-3 prostate
# [55] = tested on: HT29 colon
# [56] = tested on: SNB-75 CNS
structure (smiles),measurement,setting,value
COc1c2occc2cc2ccc(=O)oc12,GI50,[1],93.1 µM
same,TGI,[1],> 100 µM
same,GI50,[2],> 100 µM
same,TGI,[2],> 100 µM
same,GI50,[3],> 100 µM
same,TGI,[3],> 100 µM
same,GI50,[4],> 100 µM
same,TGI,[4],> 100 µM
same,GI50,[5],> 100 µM
same,TGI,[5],> 100 µM
same,GI50,[6],> 100 µM
same,TGI,[6],> 100 µM
same,GI50,[7],> 100 µM
same,TGI,[7],> 100 µM
same,GI50,[8],> 100 µM
same,TGI,[8],> 100 µM
same,GI50,[9],> 100 µM
same,TGI,[9],> 100 µM
same,GI50,[10],> 100 µM
same,TGI,[10],> 100 µM
same,GI50,[11],> 100 µM
same,TGI,[11],> 100 µM
same,GI50,[12],> 100 µM
same,TGI,[12],> 100 µM
same,GI50,[13],> 100 µM
same,TGI,[13],> 100 µM
same,GI50,[14],39.8 µM
same,TGI,[14],> 100 µM
same,GI50,[15],> 100 µM
same,TGI,[15],> 100 µM
same,GI50,[16],> 100 µM
same,TGI,[16],> 100 µM
same,GI50,[17],> 100 µM
same,TGI,[17],> 100 µM
same,GI50,[18],> 100 µM
same,TGI,[18],> 100 µM
same,GI50,[19],> 100 µM
same,TGI,[19],> 100 µM
same,GI50,[20],> 100 µM
same,TGI,[20],> 100 µM
same,GI50,[21],> 100 µM
same,TGI,[21],> 100 µM
same,GI50,[22],> 100 µM
same,TGI,[22],> 100 µM
same,GI50,[23],> 100 µM
same,TGI,[23],> 100 µM
same,GI50,[24],> 100 µM
same,TGI,[24],> 100 µM
same,GI50,[25],> 100 µM
same,TGI,[25],> 100 µM
same,GI50,[26],81.6 µM
same,TGI,[26],> 100 µM
same,GI50,[27],> 100 µM
same,TGI,[27],> 100 µM
same,GI50,[28],> 100 µM
same,TGI,[28],> 100 µM
same,GI50,[29],> 100 µM
same,TGI,[29],> 100 µM
same,GI50,[30],> 100 µM
same,TGI,[30],> 100 µM
same,GI50,[31],> 100 µM
same,TGI,[31],> 100 µM
same,GI50,[32],> 100 µM
same,TGI,[32],> 100 µM
same,GI50,[33],> 100 µM
same,TGI,[33],> 100 µM
same,GI50,[34],> 100 µM
same,TGI,[34],> 100 µM
same,GI50,[35],> 100 µM
same,TGI,[35],> 100 µM
same,GI50,[36],> 100 µM
same,TGI,[36],> 100 µM
same,GI50,[37],> 100 µM
same,TGI,[37],> 100 µM
same,GI50,[38],60.9 µM
same,TGI,[38],> 100 µM
same,GI50,[39],> 100 µM
same,TGI,[39],> 100 µM
same,GI50,[40],> 100 µM
same,TGI,[40],> 100 µM
same,GI50,[41],> 100 µM
same,TGI,[41],> 100 µM
same,GI50,[42],> 100 µM
same,TGI,[42],> 100 µM
same,GI50,[43],> 100 µM
same,TGI,[43],> 100 µM
same,GI50,[44],> 100 µM
same,TGI,[44],> 100 µM
same,GI50,[45],> 100 µM
same,TGI,[45],> 100 µM
same,GI50,[46],> 100 µM
same,TGI,[46],> 100 µM
same,GI50,[47],> 100 µM
same,TGI,[47],> 100 µM
same,GI50,[48],> 100 µM
same,TGI,[48],> 100 µM
same,GI50,[49],> 100 µM
same,TGI,[49],> 100 µM
same,GI50,[50],> 100 µM
same,TGI,[50],> 100 µM
same,GI50,[51],> 100 µM
same,TGI,[51],> 100 µM
same,GI50,[52],> 100 µM
same,TGI,[52],> 100 µM
same,GI50,[53],55.4 µM
same,TGI,[53],> 100 µM
same,GI50,[54],> 100 µM
same,TGI,[54],> 100 µM
same,GI50,[55],> 100 µM
same,TGI,[55],> 100 µM
same,GI50,[56],73.3 µM
same,TGI,[56],> 100 µM
